Experiment: Stability of solutions (control solution and sample solution at room temperature)
Format: physicochemical
Description: Control stock solution: 7.5 mg of the nitrosamine compound P08 (purity≥98%) was weighed into a 100 ml volumetric flask, dissolved and diluted with acetonitrile to volume (volumetric solution 1A). 1.0 mL of the volumetric solution 1A was added into a 100 ml volumetric flask, and diluted with acetonitrile to volume (volumetric solution 1B). 1.0 mL of the volumetric solution 1B was added into a 20 ml volumetric flask, and diluted with acetonitrile to volume to obtain the control stock solution.
Control solution: 1.0 mL of the control stock solution was added into a 10 ml volumetric flask, and diluted with acetonitrile to volume to obtain the control solution.
Sample solution: 10 varenicline tartrate tablets were placed in a 10 ml volumetric flask, added with 3 mL of purified water and 3 mL of acetonitrile, sonicated for 30s, then diluted with acetonitrile to volume and mixed evenly.
The control solution and the sample solution were placed at room temperature, then injected for analysis at intervals of 0, 2, 4, 6, 8, 10, 12 hours, and the peak area ratio of each time point to the zero point (i.e., peak area change rate) was calculated.

Q: Which “peak area change rate within 12 hours” value (control solution (acetonitrile)) does the source give for `O=NN1CC2CC(C1)c1cc3nccnc3cc12` [P08] here?
A: Its value is under 12%.

Q: And the “peak area change rate within 12 hours” value (sample solution (tablets in water/acetonitrile))?
A: Its value is under 3.5%.
